Laboratory results published in US20170356005A1, “NON-VIRAL IPSCS INDUCING COMPOSITION AND KITS” (Guangzhou Biocare Biotechnology Co., Ltd, priority 2016, published 2017).
Where a name gives a salt, the structure may show the parent alone.

Test system: urine-derived renal epithelial cells
Experiment: AP staining of iPSC clones after induction culture (efficiency of AP positive clones)
Assay type: cell-based, human
Conditions: Example 5, FIG. 11-12
Method: 1. The procedure for AP staining is as follows,
a) Aspirate and remove the growth medium from the cultures to be stained when the cell culture is finished, wash the culture with 1×PBS one time; Fix the cells with 4% paraformaldehyde at room temperature for 2 min;
b) Aspirate the fixing solution, wash the culture with 1×TBST for 3 times; Balance with AP buffer at room temperature for 5 min;
c) Chromogenic reaction was performed with AP chromogenic reagent at room temperature in dark for 15 min (5-15 min, terminated when the color of clones became darker and without background, increase the reaction time appropriately if the clones were not stained). The chromogenic reagent was aspirated, cells were washed with 1×PBS for two times, covered with an appropriate amount of 1×PBS, observed and counted under a microscope.
Alkaline phosphatase (AP) is a phosphomonoesterase. The alkaline phosphatase in the cytoplasm can hydrolyze sodium naphthol phosphate to produce α-naphthol in alkaline environments. The latter reacts with a stable azo salt and presents a deep purple color, which the presence of alkaline phosphatase and the abundance of expression could be determined accordingly. Alkaline phosphatase is highly expressed in undifferentiated pluripotent stem cells, and the activity of alkaline phosphatase in the differentiated pluripotent stem cells is decreased. Therefore, whether the cells are clones of iPSCs could be determined by alkaline phosphatase staining (AP staining). And, thus the efficiency of iPSCs production can be easily judged according to the efficiency of AP positive clones.
In Example 1-2 and 4-6, the efficiency of AP positive clones was determined based on the number of cells in each group after electroporation transformation, ie the efficiency of AP positive clones=number of AP positive clones/number of passaged cells per well after electroporation in each group;
In Example 3 and 7-10, the efficiency of AP positive clones was determined based on the total number of cells after electroporation transformation, i.e. the efficiency of AP positive clones=number of AP positive clones/total number of cells after electroporation transformation.
a) Electroporation transformation: The recombinant plasmids obtained in step 1) were added into the culture of renal epithelial cells after digestion with trypsin, and then transferred into the renal epithelial cells. […]
b) Induction culture: 1-3 days after Step 1), or when the cells reached a confluence of 30% or more, the culture medium of pluripotent stem cell was used to continue induction culture. About 15-30 days after the mature of iPSCs clones, the positive clones of iPSCs were identified by AP staining, and the efficiency of AP positive clones was calculated accordingly;

Row | Structure (SMILES) | preferable concentration (AP staining)
1 | Cc1c[nH]c(-c2cnc(NCCNc3ccc(C#N)cn3)nc2-c2ccc(Cl)cc2Cl)n1 [CHIR-99021] | 3 µM
2 | O=C(NOC[C@H](O)CO)c1ccc(F)c(F)c1Nc1ccc(I)cc1F [PD0325901] | 0.5 µM
3 | CCCC(=O)[O-].[Na+] [sodium butyrate, Sodium Butyrate] | 250 µM
4 | N[C@@H]1C[C@H]1c1ccccc1 [tranylcypromine hydrochloride, Tranylcypromine hydrochloride] | 2 µM
